What all share (experiment): DTP human tumour cell line panel, 48 h
Assay [1] relates to M14 melanoma.
The subject of assay [2] is SN12C renal.
The test system of assay [3] is HOP-92 NSCLC.
In assay [4] the test system is SW-620 colon.
Assay [5] deals with MDA-MB-231 breast.
Assay [6] deals with UACC-257 melanoma.
In assay [7] the test system is NCI-H226 lung.
The test system of assay [8] is OVCAR-4 ovarian.
In assay [9] the test system is COLO 205 colon.
For assay [10], the system named is A549 NSCLC.

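Each compound was tested at five concentrations against cells in 96-well plates for 48 hours. GI50: concentration for 50% inhibition of growth. The concentration for full growth arrest is given as TGI.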

For `O=C1C=C[C@@]23C[C@@H](Nc4c(O)c5c6c(c42)=NCCC=6C=N5)SC3=C1`, the GI50 was 2.16 µM in assay [1]; 2.36 µM in assay [2]; 3.18 µM in [3]; 1.68 µM in [4]; 1.62 µM in assay [5]; 1.67 µM in [6]. Besides, the figures for the GI50 in assay [8] and in assay [10] were 1.83 µM and 8.62 µM, respectively. Besides, the TGI in [1] turned out to be 5.05 µM; in [2] it was 5.16 µM; in assay [3] it was 10.2 µM; in assay [4] it was 3.31 µM; in assay [5], 3.35 µM; in assay [6], 3.04 µM. Further, the TGI was 28.7 µM in assay [7], 3.27 µM in [8], 2.92 µM in assay [9] and 24.4 µM in assay [10].
Turning to `C=CC1=C[C@@H]2[C@@H]3O[C@]4(CC[C@H](O4)[C@@H](C)C[C@@H](O)C3=O)C[C@H](O)C3=NCC[C@@]32CC1`, the 50% growth inhibitory concentration (GI50) in [1], in [2], in assay [3], in assay [4], in assay [5] and in assay [6] was less than 0.00333 µM in each case. Also, the concentration for 50% growth inhibition (GI50) in [7], in [8], in assay [9] and in assay [10] was less than 0.00333 µM in each case. Also, the TGI is less than 0.00333 µM in assay [1]; 0.011 µM in assay [2]; 0.00606 µM in assay [3]; 0.00523 µM in assay [4]; 0.0121 µM in assay [5]; 0.00486 µM in assay [6]. The total growth inhibition concentration (TGI) is less than 0.00333 µM in assay [7], 0.00522 µM in assay [8], less than 0.00333 µM in assay [9] and 0.00459 µM in assay [10].
Consider `CS(=O)(=O)c1ccc(-c2cnc(N)c(C(=O)Nc3ccccc3)n2)cc1`, for which the GI50 in [1] was 20.7 µM; in assay [2], 6.81 µM; in assay [3], 24.3 µM; in assay [4], more than 100 µM; in assay [5], more than 67.6 µM; in [6], more than 100 µM. The GI50 is more than 100 µM in assay [7], 9.86 µM in [8], more than 43 µM in assay [9] and more than 24.2 µM in assay [10]. Further, the TGI in [1], in assay [2], in [3], in assay [4], in assay [5] and in assay [6] was more than 100 µM in each case. Besides, the concentration for total growth inhibition (TGI) in assay [7], in [8], in assay [9] and in assay [10] was more than 100 µM each time.
As for `COC(=O)c1cc(-c2cc(OC)c(OC)c(OC)c2)[nH]c1N/N=C/c1c(Cl)cccc1Cl`, the GI50 in assay [1] was 8.6 µM; in assay [2], 3.3 µM; in assay [3], 0.857 µM; in assay [4], 1.51 µM; in assay [5] it was 2.75 µM; in assay [6], 5.82 µM. For the same molecule, the GI50 in assay [7] is 9.54 µM; in assay [8], 0.666 µM; in assay [9], 4.49 µM; in [10], 4.97 µM. In addition, the TGI was 40.1 µM in [1]; more than 74.3 µM in [2]; 7.48 µM in assay [3]; more than 33.8 µM in assay [4]; 22.1 µM in assay [5]; 35.7 µM in assay [6]. Besides, the total growth inhibition concentration (TGI) in [7] was 40.3 µM; in assay [8] it was 2.68 µM; in [9], more than 68 µM; in [10], 23.3 µM.
As to `NC(=O)c1oc([N+](=O)[O-])c(-c2ccccc2)c1-c1ccccc1`, the TGI in [1] was 32.5 µM; in assay [2] it was 5.09 µM; in [3], 42 µM; in assay [4], more than 100 µM; in [5], 38.6 µM; in assay [6] it was 34.7 µM. The TGI in [7] was 28.1 µM; in [8] it was 28.5 µM; in assay [9] it was 42.1 µM; in [10], 44.5 µM.
On to `Cc1nc2cnc3cc(F)c(-c4ccc(Oc5ncccn5)cc4Cl)cc3c2n1[C@H]1CCN(C(=O)CO)C[C@@H]1F`, for which the GI50 in [1] was 0.0155 µM; in [2] it was 1.2 µM; in [3], 0.403 µM; in assay [4], 0.422 µM; in assay [5], 0.101 µM; in assay [6], 0.0269 µM. The GI50 in assay [7] is 5.18 µM; in assay [8] it was 20.8 µM; in assay [9], 0.0229 µM; in [10] it was 1.97 µM. The TGI stood at 0.882 µM in [1]; 36.8 µM in assay [2]; 3.5 µM in [3]; 54.6 µM in assay [4]; 5.83 µM in [5]; 0.411 µM in assay [6]. Moreover, the TGI in assay [7] is 29.8 µM; in assay [8] it was more than 83.9 µM; in assay [9], 1.68 µM; in assay [10], more than 100 µM.
For `NC1=C(Br)C(=O)c2ncccc2C1=O`, the TGI in [1] amounted to 2.03 µM; in assay [2], 2.1 µM; in assay [3], 3.06 µM; in assay [4], 1.84 µM; in [5], 8.8 µM; in assay [6], 1.89 µM. The total growth inhibition concentration (TGI) in [7] was 3.59 µM; in [8] it was 2.49 µM; in assay [9], 3.18 µM; in [10], 2.68 µM. For the same molecule, the GI50 in assay [5] was 2.01 µM.
For the molecule `C/C([O-])=C1\Cc2ccccc2C1=O.C/C([O-])=C1\Cc2ccccc2C1=O.CC[O-].CC[O-].[Ti+4]`, the GI50 was 16.8 µM in assay [1]; 21.5 µM in assay [2]; 18.7 µM in assay [3]; 24.8 µM in assay [4]; 12.9 µM in assay [5]; 38.6 µM in [6]. For the same molecule, the GI50 in assay [7] is 7.47 µM; in [8], 27.2 µM; in assay [9], 27.4 µM; in assay [10], 28.5 µM. Further, the TGI is 42.3 µM in assay [1]; more than 81.6 µM in assay [2]; 55.4 µM in [3]; more than 84.9 µM in [4]; 70.9 µM in assay [5]; more than 100 µM in [6]. In addition, the TGI in assay [7] is 35.7 µM; in assay [8] it was more than 84.5 µM; in assay [9], 67.4 µM; in assay [10], more than 100 µM.

In general, GI50 refers to the concentration giving 50% growth inhibition. Usually TGI stands for the concentration at which net growth stops.

(Values after PubChem BioAssay (NCI).)
